Assay results taken from paper PMC7163397 (Journal of the American Chemical Society, 2017).

How the values were obtained:
E. faecium = assay: DiBAC4 membrane depolarization on E. faecium; assay type: cell-based, Enterococcus faecium; settings: deoxycholate as positive control
A. baumannii = assay: DiBAC4 membrane depolarization on A. baumannii; assay type: cell-based, Acinetobacter baumannii; settings: polymyxin as positive control
bacterial membrane = settings: bacterium not stated; ref [6b],[13],[15]; cited from earlier work

## C[C@H](CCC(=O)O)[C@H]1CC[C@H]2[C@@H]3CC[C@@H]4C[C@H](O)CC[C@]4(C)[C@H]3C[C@H](O)[C@]12C [sodium deoxycholate]
E. faecium
  Membrane depolarization (DiBAC4 fluorescence change): rapidly enhanced DiBAC4 fluorescence

## polymyxin
A. baumannii
  Membrane depolarization (DiBAC4 fluorescence change): rapidly enhanced DiBAC4 fluorescence

## tridecaptin
Bacterial membrane
  Membrane depolarization in DiBAC4 assay: does not depolarize the membrane
